Experimental data from US11440923B2, “Substituted macrocyclic indole derivatives” (Bayer Aktiengesellschaft, priority 2017, dated 2022).
Structures can show the parent of a compound that is named as a salt. Where two headings read alike, the source gives them in different places. One block for each compound: values may come before it.

Experiments:
BCL-XL = BCL-XL (Homo sapiens (Human), UniProt Q07817); assay: Protein-protein interaction assay BCL-XL/Bad BH3 peptide (BCL-XL assay, TR-FRET); assay type: binding; conditions: read-out: BCL-XL Assay IC50 (median)
Chain of BCL-XL (Q07817 1-212): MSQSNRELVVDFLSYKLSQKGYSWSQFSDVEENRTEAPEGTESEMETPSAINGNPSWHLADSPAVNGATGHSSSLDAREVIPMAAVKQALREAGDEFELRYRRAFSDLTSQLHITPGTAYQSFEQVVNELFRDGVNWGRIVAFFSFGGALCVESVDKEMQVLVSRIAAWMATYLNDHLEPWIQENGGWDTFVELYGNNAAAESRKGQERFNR
In short: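 Human BCL-XL (aa 1-212, C-terminal His6, E. coli) at 1 nM end concentration, preincubated 10 min at 22 °C with compound (11 concentrations, 0.1 nM–20 μM, duplicates), then biotinylated Bad BH3 peptide (1 nM) added with anti-His-Eu cryptate/streptavidin-XL665. Incubation 1 h at 22 °C then overnight at 4 °C; TR-FRET 665/620 ratio, IC50 from 4-parameter fit.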

SUDHL5 cells = assay: Induction of cytotoxicity in SUDHL5 cells (Assay 6); assay type: cell-based; conditions: 5 h, CellTiter-Glo; read-out: Cytotox SUDHL5 IC50 (median)
In short: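 Overnight seeding, 37 °C; 5 h compound exposure; CellTiter-Glo, 15 min RT shake; luminescence read. No-cell medium control.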

AMO-1 cells = assay: Antiproliferation assay AMO-1 (Assay 7); assay type: cell-based
In short: (§1)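 IC50 values reflect growth relative to a day 0 baseline (CI) and DMSO vehicle (C0). Viable cells were quantified by CellTiter-Glo luminescence after 72 h treatment at 37 °C.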

HMC-1-8 cells = assay: Antiproliferation assay HMC-1-8 (Assay 7); assay type: cell-based
In short: as §1

[1] = 72 h, CellTiter-Glo; read-out: Antiproli AMO-1 IC50 median
[2] = 72 h, CellTiter-Glo; read-out: Antiproli HMC-1-8 IC50 median
[3] = read-out: Antiproli AMO-1 IC50 median; 72 h, CellTiter-Glo
[4] = read-out: Antiproli HMC-1-8 IC50 median; 72 h, CellTiter-Glo

SMILES: CCc1c2c(nn1C)C(CCOC)OCCCCn1c(C(=O)O)c(CCCOc3cccc4cc(F)ccc34)c3ccc(Cl)c-2c31 (single isomer, unassigned; enantiomer 2) [Example 43, (−)-4-chloro-3-ethyl-7-{3-[(6-fluoronaphthalen-1-yl)oxy]propyl}-15-(2-methoxyethyl)-2-methyl-2,10,11,12,13,15-hexahydropyrazolo[4′,3′:9,10][1,6]oxazacycloundecino[8,7,6-hi]indole-8-carboxylic Acid—N-ethylethanamine Salt (Enantiomer 2)]
IC50 (BCL-XL): 17.2 µM
IC50 (SUDHL5 cells): 18 µM
IC50 (AMO-1 cells; [3]): 20 µM
IC50 (HMC-1-8 cells; [4]): 26.5 µM

SMILES: CCc1c2c(nn1C)C(CCN1CCC(F)(F)C1)OCCCCn1c(C(=O)O)c(CCCOc3cccc4cc(F)ccc34)c3ccc(Cl)c-2c31 (single isomer, unassigned; enantiomer 2) [Example 57, 4-chloro-15-[2-(3,3-difluoropyrrolidin-1-yl)ethyl]-3-ethyl-7-{3-[(6-fluoronaphthalen-1-yl)oxy]propyl}-2-methyl-2,10,11,12,13,15-hexahydropyrazolo[4′,3′:9,10][1,6]oxazacycloundecino[8,7,6-hi]indole-8-carboxylic Acid N-ethylethanamine Salt (Enantiomer 2)]
IC50 (BCL-XL): > 20 µM
IC50 (SUDHL5 cells): 6.8 µM
IC50 (AMO-1 cells; [3]): 4.52 µM
IC50 (HMC-1-8 cells; [4]): 13.6 µM

SMILES: CCc1c2c(nn1C)C(CCC1CCOCC1)OCCCCn1c(C(=O)O)c(CCCOc3cccc4cc(F)ccc34)c3ccc(Cl)c-2c31 (single isomer, unassigned; enantiomer 2) [Example 62, (−)-4-chloro-3-ethyl-7-{3-[(6-fluoronaphthalen-1-yl)oxy]propyl}-2-methyl-15-[2-(oxan-4-yl)ethyl]-2,10,11,12,13,15-hexahydropyrazolo[4′,3′:9,10][1,6]oxazacycloundecino[8,7,6-hi]indole-8-carboxylic Acid (Enantiomer 2)]
IC50 (BCL-XL): > 20 µM
IC50 (SUDHL5 cells): 6.3 µM
IC50 (AMO-1 cells; [1]): 1.92 µM
IC50 (HMC-1-8 cells; [2]): 21.9 µM

Continued, in another order:

IC50 (BCL-XL): > 20 µM
SMILES: Cc1c2c(nn1C)C(CCO)OCCCCn1c(C(=O)O)c(CCCOc3cccc4ccccc34)c3ccc(Cl)c-2c31 (single isomer, unassigned; enantiomer 2) [Example 32, (−)-4-chloro-15-(2-hydroxyethyl)-2,3-dimethyl-7-{3-[(naphthalen-1-yl)oxy]propyl}-2,10,11,12,13,15-hexahydropyrazolo[4′,3′:9,10][1,6]oxazacycloundecino[8,7,6-hi]indole-8-carboxylic Acid (Enantiomer 2)]
IC50 (SUDHL5 cells): > 33 µM
IC50 (AMO-1 cells; [1]): 25.6 µM
IC50 (HMC-1-8 cells; [2]): > 33 µM

IC50 (BCL-XL): 13.8 µM
SMILES: Cc1c2c(nn1C)C(C1CC1)OCCCCn1c(C(=O)O)c(CCCOc3cccc4ccccc34)c3ccc(Cl)c-2c31 (single isomer, unassigned; enantiomer 2) [Example 36, (−)-4-chloro-15-cyclopropyl-2,3-dimethyl-7-{3-[(naphthalen-1-yl)oxy]propyl}-2,10,11,12,13,15-hexahydropyrazolo[4′,3′:9,10][1,6]oxazacycloundecino[8,7,6-hi]indole-8-carboxylic Acid N-ethylethanamine Salt (Enantiomer 2)]
IC50 (SUDHL5 cells): 21 µM
IC50 (AMO-1 cells; [3]): 15.8 µM
IC50 (HMC-1-8 cells; [4]): 19 µM

IC50 (BCL-XL): > 20 µM
SMILES: CCc1c2c(nn1C)C(CCO)OCCCCn1c(C(=O)O)c(CCCOc3cccc4cc(F)ccc34)c3ccc(Cl)c-2c31 (single isomer, unassigned; enantiomer 2) [Example 46, (−)-4-chloro-3-ethyl-7-{3-[(6-fluoronaphthalen-1-yl)oxy]propyl}-15-(2-hydroxyethyl)-2-methyl-2,10,11,12,13,15-hexahydropyrazolo[4′,3′:9,10][1,6]oxazacycloundecino[8,7,6-hi]indole-8-carboxylic Acid (Enantiomer 2)]
IC50 (SUDHL5 cells): 4.3 µM
IC50 (AMO-1 cells; [1]): 8.65 µM
IC50 (HMC-1-8 cells; [2]): > 33 µM

IC50 (BCL-XL): > 20 µM
SMILES: CCc1c2c(nn1C)C(CCN1CCOCC1)OCCCCn1c(C(=O)O)c(CCCOc3cccc4cc(F)ccc34)c3ccc(F)c-2c31 (single isomer, unassigned; enantiomer 2) [Example 51, (−)-3-ethyl-4-fluoro-7-{3-[(6-fluoronaphthalen-1-yl)oxy]propyl}-2-methyl-15-[2-(morpholin-4-yl)ethyl]-2,10,11,12,13,15-hexahydropyrazolo[4′,3′:9,10][1,6]oxazacycloundecino[8,7,6-hi]indole-8-carboxylic Acid (Enantiomer 2)]
IC50 (SUDHL5 cells): 3.4 µM
IC50 (AMO-1 cells; [1]): 10.8 µM
IC50 (HMC-1-8 cells; [2]): 22 µM

IC50 (BCL-XL): 14.3 µM
SMILES: CCc1c2c(nn1C)C(CC(C)(C)O)OCCCCn1c(C(=O)O)c(CCCOc3cccc4cc(F)ccc34)c3ccc(Cl)c-2c31 (single isomer, unassigned; enantiomer 21) [Example 54, (−)-4-chloro-3-ethyl-7-{3-[(6-fluoronaphthalen-1-yl)oxy]propyl}-15-(2-hydroxy-2-methylpropyl)-2-methyl-2,10,11,12,13,15-hexahydropyrazolo[4′,3′:9,10][1,6]oxazacycloundecino[8,7,6-hi]indole-8-carboxylic Acid—N-ethylethanamine Salt (Enantiomer 21]
IC50 (SUDHL5 cells): 9.4 µM
IC50 (AMO-1 cells; [3]): 27.8 µM
IC50 (HMC-1-8 cells; [4]): 20.2 µM
